From article PMC6270099, “Synthesis, Biological Evaluation, and Pharmacokinetic Study of Novel Liguzinediol Prodrugs” (Molecules, 2013)
Marks after values point to notes of the source that are not given here.

Assays:
[1] = system: isolated Langendorff-perfused rat hearts; experiment: Ex vivo Langendorff-perfused rat heart, cardiac performance; conditions: for ∆% +dP/dtmax / ∆% LVDP / ∆% −dP/dtmax: increase vs. control; for LVDP: isolated rat heart, mean ± SD, n = 6
Description: The cardiac contractility and safety of prodrugs 3–5 were evaluated on the myocardium in normal isolated rat hearts with LZDO as a positive control. Prodrugs 3–5 exerted positive inotropic effects in a dose-dependent manner. The increased rate in left ventricular developed pressure (LVDP, accepted as contractile force), +dP/dtmax (used as an index of contractility), the maximum rate of pressure decrease of the left ventricle ([…], used as an index of diastolic function) and the heart rate (HR, used as an index of heart muscle oxygen consumption) of these compounds vs. control are listed in Table 1.
All commercial reagents and solvents were used without further purification unless otherwise specified. Melting points were determined using a model Buchi B-450 apparatus. ESI-MS were recorded on a TOF mass spectrometer (Applies-Biosystem Mariner). IR spectra were acquired by using a THERMO IR spectrometer Model Nicolet-100. ^1H- and ^13C-NMR spectra (500/125 MHz) were recorded on a Bruker Advance 500 spectrophotometer. Mass spectra were recorded on a ZAB-HS mass spectrometer and are reported as m/z values. HPLC analysis was conducted on a Waters 2695 HPLC instrument equipped with a UV detector (model 2489). LZDO and prodrugs 3–5 were analysed by HPLC, and their purity was confirmed to be greater than 98.0%. In vitro metabolic stability analysis was conducted by a HPLC method, using stock standard solutions of LZDO and prodrugs that were prepared in water at a concentration of 30 mM. The positive inotropic effects on the myocardium of LZDO and prodrugs 3–5 in vitro were evaluated on Langendorff-perfused hearts isolated from normal Sprague-Dawley rats. A HPLC method was applied to measure the rat plasma concentrations of LZDO and prodrug 3 after intragastric administration of prodrug 3 in the rats.
Sprague-Dawley adult male rats weighing 260–320 g were anaesthetised by intraperitoneal administration of 20% urethane (1.2 g/kg). The hearts were quickly removed and placed into an ice-cold modified buffer until contractions ceased. The heart was cleaned of surrounding tissues, mounted on the aortic cannula of the Langendorff perfusion system apparatus, and perfused with oxygenated buffer (mM): NaCl 117, KCl 5.7, CaCl2 1.8, MgCl2 1.7, NaHCO3 4.4, NaH2PO4 1.5, HEPES 20 and glucose 11. The buffer was equilibrated with 95% O2 and 5% CO2 and adjusted to pH 7.4 with NaOH before it entered the heart. An epicardial electrogram was registered using two stainless steel electrodes, one attached to the apex of the heart and the other to the aortic cannula. To obtain an isovolumetrically beating preparation, a latex balloon filled with water and connected by a catheter to a transducer was inserted through the left atrium into the left ventricle and inflated to provide an end-diastolic pressure between 8 and 12 mm Hg. Before each experimental protocol was initiated, the isolated hearts were set at a mean arterial pressure of 60–80 mm Hg and allowed to stabilise at 37 °C for 40–60 min. The isolated rat hearts were then perfused in sequence with 1, 10, and 100 μM of LZDO and prodrugs 3–5 in each group. A RM6240B/C four channel physiological recording instrument (Chengdu Instrument Factory, Chengdu, China) was used for continuous recording of LVSP, LVEDP, HR (derived from electrogram), +dP/dtmax and −dP/dtmax throughout the experiments. The criteria for established stability were LVDP > 50 mmHg, +dP/dtmax > 1,600 mmHg·s^−1, heart rate > 180 beats·min^−1 and normal sinus rhythm. The hearts were not studied if they had weak contractility (+dP/dtmax < 1,600 mmHg·s^−1) and severe arrhythmia. Diastolic balloon pressure was maintained at 8 mmHg. LVDP was calculated as the difference between the systolic and diastolic pressures. The results are expressed as the mean value of hemodynamic variables (n = 6). Statistical analysis was performed using SPSS for Windows (version 13.0). Data were analyzed by One-way ANOVA. […]

[2] = Pharmacokinetics of LZDO in rats after intragastric administration of prodrug 3; format: in vivo, rat; conditions: rats (data not shown)
Description: Pharmacokinetic parameters including half-life, clearance, and bioavailability are important properties of a drug candidate. […] The major pharmacokinetic parameters of LZDO were calculated using a noncompartment model based on statistical moment. The pharmacokinetic parameters of LZDO after intragastric administration of prodrug 3 at 10, 20 and 40 mg/kg in rats are summarized in Table 2. The pharmacokinetic parameters of LZDO after intragastric administering LZDO at 10, 20 and 50 mg/kg in rats are summarized in Table 3 [19]. Prodrug 3 was converted completely within 2 h in rats (data not shown).
Sprague-Dawley rats (male, weighing 200 ± 20 g) were obtained from Slack Laboratory Animal Site (Shanghai, China) and kept in an environmentally controlled breeding room for at least five days before experimentation. The rats were fasted overnight but with free access to water before the test. Animal welfare and experimental procedures were strictly in accordance with the guide for the care and use of laboratory animals. […] The collected blood samples were pretreated by the aforementioned method (sample dilutions were made when necessary) and the concentrations of LZDO and prodrug 3 in each sample were finally determined based on the validated HPLC method. […]

SMILES	+dP/dtmax ([1]; 1 μM)	HR ([1]; 1 μM) [beat·min^−1]	−dP/dtmax ([1]; 1 μM)	∆% +dP/dtmax ([1]; 1 μM) [%]	∆% LVDP ([1]; 1 μM) [%]	∆% −dP/dtmax ([1]; 1 μM) [%]	LVDP ([1]; 1 μM)	+dP/dtmax ([1]; 10 μM)	HR ([1]; 10 μM) [beat·min^−1]	−dP/dtmax ([1]; 10 μM)	∆% +dP/dtmax ([1]; 10 μM) [%]	∆% LVDP ([1]; 10 μM) [%]	∆% −dP/dtmax ([1]; 10 μM) [%]	LVDP ([1]; 10 μM)	+dP/dtmax ([1]; 100 μM)	HR ([1]; 100 μM) [beat·min^−1]	−dP/dtmax ([1]; 100 μM)	∆% +dP/dtmax ([1]; 100 μM) [%]	∆% −dP/dtmax ([1]; 100 μM) [%]	LVDP ([1]; 100 μM)	further results
CC(=O)OCc1nc(C)c(COC(C)=O)nc1C [compound 3]	1,641 ± 29 mmHg/s	203 ± 15	−1,139 ± 76 mmHg/s	1.9 ± 0.5	15.0 ± 5.5	4.9 ± 5.9	63 ± 2 ^b mmHg	1,768 ± 91 ^bd mmHg/s	204 ± 14	−1,184 ± 75 ^a mmHg/s	9.8 ± 7.0	26.3 ± 7.7	9.0 ± 5.1	69 ± 1.1 ^bd mmHg	2,123 ± 82 ^bdf mmHg/s	205 ± 26	−1,313 ± 70 ^bdf mmHg/s	31.8 ± 5.3	20.9 ± 5.1	79 ± 1.6 ^bdf mmHg	∆% LVDP ([1]; 100 μM): 44.7 ± 6.6%; positive inotropic effect on the myocardium ([1]; normal isolated rat hearts, 1, 10, 100 μM): most potent prodrug; time to complete conversion of prodrug in rats [2]: ≤ 2 h
Cc1nc(COC(=O)C(C)C)c(C)nc1COC(=O)C(C)C [compound 4, 2,5-Di-iso-butyryloxymethyl-3,6-dimethylpyrazine]	1,669 ± 103 mmHg/s	213 ± 46	−1,101 ± 102 mmHg/s	2.2 ± 3.4	17.4 ± 9.8	5.6 ± 8.3	63 ± 3 ^b mmHg	1,765 ± 52 ^a mmHg/s	196 ± 16	−1,196 ± 54 ^bc mmHg/s	4.9 ± 5.4	14.2 ± 10.0	9.9 ± 9.5	60 ± 4 ^a mmHg	1,952 ± 49 ^bdf mmHg/s	191 ± 29	−1,399 ± 61 ^bdf mmHg/s	9.0 ± 8.9	16.7± 15.2	73 ± 2.3 ^bdf mmHg	–
Cc1nc(COC(=O)c2ccccc2)c(C)nc1COC(=O)c1ccccc1 [compound 5, 2,5-Dibenzoyloxymethyl-3,6-dimethylpyrazine]	1,688 ± 95 mmHg/s	189 ± 30	−1,095 ± 45 mmHg/s	1.0 ± 1.1	5.3 ± 3.3	1.3 ± 0.8	55 ± 5 mmHg	1,831 ± 14 ^bd mmHg/s	196 ± 40	−1,245 ± 48 ^bd mmHg/s	9.9 ± 5.9	13.9 ± 7.4	15.3 ± 2.8	59 ± 2.5 ^b mmHg	1,962 ± 70 ^bdf mmHg/s	213 ± 41	−1,314 ± 63 ^bde mmHg/s	17.6 ± 6.8	21.7 ± 7.2	64 ± 2.4 ^bde mmHg	∆% LVDP ([1]; 100 μM): 24.5 ± 11.2%
